Source: PubChem BioAssay (NCI)
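How tested: cells in 96-well plates exposed to compound for 48 hours at five concentrations. TGI marks complete inhibition of growth.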

Columns and labels:
Test in all cases: NCI anticancer screen, dose series, 48 h
SW-620 colon = test system: SW-620 colon
HCT-15 colon = test system: HCT-15 colon
U251 CNS = test system: U251 CNS
OVCAR-5 ovarian = test system: OVCAR-5 ovarian
HL-60(TB) leukemia = test system: HL-60(TB) leukemia
SK-MEL-28 melanoma = test system: SK-MEL-28 melanoma
NCI/ADR-RES ovarian = test system: NCI/ADR-RES ovarian
SR leukemia = test system: SR leukemia
786-0 renal = test system: 786-0 renal
TK-10 renal = test system: TK-10 renal
SN12C renal = test system: SN12C renal
LOX IMVI melanoma = test system: LOX IMVI melanoma

SMILES | TGI (SW-620 colon) [µM] | TGI (HCT-15 colon) [µM] | TGI (U251 CNS) [µM] | TGI (OVCAR-5 ovarian) [µM] | TGI (HL-60(TB) leukemia) [µM] | TGI (SK-MEL-28 melanoma) [µM] | TGI (NCI/ADR-RES ovarian) [µM] | TGI (SR leukemia) [µM] | TGI (786-0 renal) [µM] | TGI (TK-10 renal) [µM] | TGI (SN12C renal) [µM] | TGI (LOX IMVI melanoma) [µM]
CC(C)CC1c2[nH]c3ccccc3c2C[C@H]2C(=O)NC(CCC(=O)OC(C)(C)C)C(=O)N12 (stereo partly drawn) | > 100 | > 100 | > 100 | > 100 | 55.2 | > 100 | > 100 | 65.1 | > 100 | 74 | 70.8 | 60.6
CC1OC(O[C@H]2CC[C@]3(C)[C@H]4CC=C5[C@@H]6[C@@H](C)[C@H](C)CC[C@]6(C(=O)O)CC[C@@]5(C(=O)O)[C@]4(C)CC[C@H]3C2(C)C)C(O)C(O)C1O (stereo partly drawn) | > 75 | > 75 | > 75 | > 75 | > 75 |  | > 75 | > 75 | > 75 | > 75 | > 75 | > 75
[N-]=[N+]=Nc1ccc2c(c1)Sc1ccccc1N2CCCCCl | > 100 | > 100 | > 100 | > 100 | 64.3 | > 100 | > 100 | > 100 | > 100 | > 100 | > 100 | > 100
COc1cc(-c2coc3c(OC)c(OC4OC(CO)C(O)C(O)C4O)c(OC)cc3c2=O)cc(OC)c1C (stereo not drawn) | > 41.3 | 19.6 | > 34.6 | 32.7 | > 100 | > 28.4 | 27.4 | > 100 | > 100 | > 70.3 | 51.8 | > 31.2
NC1CC(=O)c2cc(Br)sc21 (stereo not drawn) | > 100 | > 100 | > 100 | > 100 | > 100 | > 100 | > 100 | > 100 | > 100 | > 100 | > 100 | 
CCOC(=O)c1ccc(C(=O)/C(C#N)=C2\CCCN2)[nH]1 | > 100 | > 100 | > 100 | > 100 | > 100 | > 100 | > 100 | 84.5 | > 100 |  | > 100 | > 100
COC1OC(CO)C(O)C(OC(=O)c2cc(O)c(O)c(O)c2)C1OC(=O)c1cc(O)c(O)c(O)c1 (stereo not drawn) | > 100 | > 100 | > 100 | > 100 | > 100 | > 100 | > 100 | > 100 | > 100 | > 100 | > 100 | 68.2
CC1=C(OC2OC(CO)C(O)C(O)C2O)C(=O)C[C@H]2C1=CC[C@@H]1[C@@]2(C)C(=O)C[C@]2(C)[C@@H]([C@@](C)(O)C(=O)CCC(C)(C)O)[C@H](O)C[C@@]12C (stereo partly drawn) | > 100 | > 100 | > 100 | > 100 | > 100 | > 100 | > 100 | > 100 | > 100 | > 100 | > 100 | > 100
CC1C[C@]2(C)C(=S)Nc3ccccc3[C@@H]2Nc2ccccc21 (stereo partly drawn) | 55.7 | 50.8 |  | 43.5 | 77 | 12.7 | 36.6 | > 100 | 34.1 | 39.5 | 37.5 | 28.5
CCOC(=O)n1cncc1CC(NC(=O)Cc1c(C(=O)C=C(C)C)[nH]c2ccccc12)C(=O)OC (stereo not drawn) | > 100 | 59.6 | 44.9 | 35 | 44 | 32.8 | > 100 | 16.1 | 55.5 | 34.2 | 39.5 | 35.6
CC1(C)C(=O)N=C(N)N1C(=O)OCc1ccccc1 | > 100 | > 100 | > 100 | > 100 | > 100 | > 100 | > 100 | > 100 | > 100 | > 100 | > 100 | > 100
N=C1C(=N)c2ccccc2-c2ccccc21 |  | 2.99 | 2.63 | 3.43 | 0.658 | 3.35 | 5 | 6.46 | 4.46 | 3.01 | 2.49 | 1.02
COC(=O)C1(O)c2ccccc2N=C2C(=O)c3ccccc3N21 (stereo not drawn) | > 100 | > 100 | > 100 | > 100 | > 100 | > 100 | > 100 | > 100 | > 100 | > 100 | > 100 | > 100
CCOC(=O)c1c(NC(=O)Nc2ccccc2)c(C(N)=O)c2n1CCCCC2 | > 100 | > 100 | > 100 |  | > 100 | > 100 | > 100 | > 100 | > 100 | > 100 |  | > 100
O=C1CCCc2cc3c(cc21)CCC3C(=O)O (stereo not drawn) | > 100 | > 100 | > 100 | > 100 | > 100 | > 100 | > 100 | > 100 | > 100 | > 100 | > 100 | > 100
O=c1c2cccnc2nc2ccc3c[nH][nH]c3c12 | > 10 | > 10 | > 10 | > 10 | > 10 | > 10 | > 10 | 9.14 | > 10 | > 10 | > 10 | > 10
O=C(O)CN1CCN(CC(=O)O)CCN(CC(=O)O)CCN(CC(=O)O)CC1 | > 100 | > 100 | > 100 | > 100 | > 100 |  | > 100 | > 100 | > 100 | > 100 | > 100 | > 100
O=C(Cc1ccccc1)c1ccc2[nH]c(=O)oc2c1 | > 100 | > 100 | 62.3 | > 100 | > 100 | > 100 | 79 | > 100 | > 100 | > 100 | > 100 | > 100
